Data taken from patent US6680025B2, “Device and method for photoactivation” (Cerus Corporation, priority 1989, dated 2004).

Assays:
Type in all cases: biochemical
HIV 115-mer = assay: Post-amplification sterilization, isopsoralen present during amplification (Example 55); conditions: AMDMIP 400 μg/ml, 30 cycles
Text: For the purposes of this determination, the steps of the following experiment include (see FIG. 42): a) preparing template, b) providing template, c) providing isopsoralen, d) providing PCR reagents, e) providing polymerase, f) mixing isopsoralen, PCR reagents, template, and polymerase to initiate PCR, g) cycling to provide PCR product, h) irradiating, i) carrying over of PCR product into new tubes at specific copy numbers, and j) amplifying in a subsequent PCR.
Step a): Template Preparation. HIV 115-mer was used as template.
Step b) Providing Template. For the reaction, template (equivalent to approximately 107 copies) in buffer was provided for the reaction vessel. Step c) Providing Isopsoralen. AMDMIP (400 μg/ml) was provided as the isopsoralen. This is a higher concentration of AMDMIP than used in the previous example.
Step d), e), f) and g). PCR reagents and polymerase were provided, mixed and cycled as described above. This time, however, isopsoralen is part of the pre-amplification mixture.
Step h) Irradiation. Irradiation was performed on the CE-III device for 15 minutes at 25° C.
Step i) Carrying over of PCR product. Aliquots of PCR product were added into six new reaction tubes—two tubes for each dilution. Dilutions to yield 10^7, 10^5 and 10^3 copies were made. […]

human placental DNA = assay: PCR in presence of AMDMIP and DMSO co-solvent; conditions: AMDMIP 200 μg/ml
Experimental: In this example, the effect of DMSO on PCR amplification in the presence of high concentrations of sterilizing compound (AMDMIP) was investigated. Samples were prepared for PCR which contained 1 μg of human placental DNA either with or without (unirradiated) AMDMIP (200 μg/ml). The samples were amplified 30 cycles under standard PCR conditions in the presence of 0%, 1%, 5% or 10% DMSO. The reaction mix contained α-^32P-dCTP. Following amplification, the samples were analyzed by PAGE (data not shown).

[1] = system: HIV 115-mer PCR product carryover; assay: Post-amplification sterilization, isopsoralen added after amplification (Example 54); conditions: for sterilization of carryover: AMDMIP 100 μg/ml, PTI 15 minutes, 10^6 copies
Text: In this embodiment, the method of sterilization comprises: 1) providing PCR reagents, 2) providing template, 3) providing polymerase, 4) mixing PCR reagents, template, and polymerase to initiate PCR, 5) cycling to provide PCR product, 6) providing isopsoralen, 7) adding isopsoralen to PCR product, and 8) irradiating PCR product.
For the purposes of this determination, the steps of the following experiment include (see FIG. 40): a) preparing template, b) providing template, c) providing PCR reagents, d) providing polymerase, e) mixing PCR reagents, template, and polymerase to initiate PCR, f) cycling to provide PCR product, g) carrying over of PCR product into new tubes, h) providing isopsoralen, i) adding isopsoralen to the carryover, j) irradiating, k) addition of new PCR reagents, and 1) subsequent PCR.
Steps a), b), c), d), e), and f). PCR product was provided as described earlier.
Step g) Carrying over of PCR product. Aliquots of PCR product were added into new reaction tubes at 10^6 copies per tube.
Step h) Providing Isopsoralen. AMDMIP was synthesized as described and diluted.
Step i) Addition of Isopsoralen ANDDMIP (100 μg/ml, approximately 10^−4 M) was added reaction vessels containing carryover.
Step i) Irradiation. Irradiation was performed on the PTI device to avoid photoproduct. Three of the new reaction tubes were irradiated while the others were left unirradiated as controls. Irradiation was for 15 minutes at RT as above.
Step k) PCR Reagents and Tag Polymerase Were Added to Appropriate Concentrations. The final volume was increased two fold such that AMDMIP photoproducts were at 50 μg/ml.
Step l) Subsequent PCR. Amplification was performed, in closed reaction vessels using primer pair SK-38/39 for 20, 25 or 30 cycles, using the temperature profile for cycling described above in the presence of α-^32P-dCTP.

Cc1oc2ccc3c(C)cc(=O)oc3c2c1CN [AMDMIP, 4′-Aminomethyl-4,5′-dimethylisopsoralen]
post-amplification sterilization (HIV 115-mer; CE-III 15 minutes at 25° C., 10^7, 10^5, 10^3 copies carried over): complete, post-amplification sterilization | reamplification of carryover with AMDMIP, not light-treated (HIV 115-mer): show amplification | product band CPM (human placental DNA; 0% DMSO): 2500 CPM | product band CPM (human placental DNA; 1% DMSO): 2800 CPM | product band CPM (human placental DNA; 5% DMSO): 86,000 CPM | product band CPM (human placental DNA; 10% DMSO): 102,000 CPM | amplification in presence of unirradiated AMDMIP (human placental DNA; no DMSO, 30 cycles): virtually no detectable amplification product | reamplification of carryover with AMDMIP, not light-treated ([1]; 20, 25, 30 cycles): show amplification | sterilization of carryover ([1]; 20 cycles): sterilization appears to be complete | sterilization of carryover ([1]; 25 cycles): reduced relative to controls | sterilization of carryover ([1]; 30 cycles): no significant sterilization is observed
